Entries after “also recorded” stand apart in the source; their conditions may differ.
Key:
sugen/hypoxic PAH model = details: cited from earlier work
Akt [1] = target: T1, Akt (Rattus norvegicus, UniProt P47196); assay: Western blot of Akt nitration, phosphorylation and total nitration in lung lysate, sugen/hypoxia PAH model; assay type: in vivo; details: sugen/hypoxia rats two-weeks (SU2), NP 0.1 mg/kg/day i.v.
T1 construct: nitro Akt, phospho Akt and total Akt expression in the lung lysate; from tissue; host or cells: rat lung (Sprague Dawley, sugen/hypoxia model)
Procedure: (§1) For an analysis of the total lung protein, lung tissues were lysed as previously described. Briefly, 20-40 mg of lung tissue (human/rat) was lysed in Permeabilization Buffer mixed with protease and phosphatase inhibitor cocktails using a Fisher Homogenizer 850. The homogenate was centrifuged at 10,000 g for 10 min, and the supernatant was carefully collected. Cell membrane and cytosolic fractions were isolated using FractionPREP™ cell fraction kit (Biovision, Milpitas, Calif.) according to manufacturer's instruction. The protein concentration was measured using the BCA protein assay kit (Thermo Scientific, Rockford, Ill.). Samples were incubated with 6×Laemmli sample buffer (Boston Bioproducts Inc., Ashland, Mass.), for 5 min at 95° C., loaded on the 4-20% SDS-PAGE Mini-PROTEAN TGX Stain-Free™ gels (Bio-Rad Laboratories Inc., Hercules, Calif.) and separated by electrophoresis. Protein bands were transferred using Trans-Blot Turbo transferring system (Bio-Rad Laboratories Inc.) and then blocked with 5% bovine serum albumin in Tris-buffered saline. Membranes were probed using antibodies against Glut 4 (07-1404) from Millipore, pyruvate carboxylase (PC) (Ab229267) & peroxisome proliferator-activated receptor gamma coactivator 1-alpha (PGC-1α) (Ab191838) from Abcam, pyruvate dehydrogenase (PDH) (45-6600) from Invitrogen, phospho Akt (Ser 473) (4060S), Akt (9272S), hexokinase 1 (HK1) (C35C4), glyceraldehyde-3 phosphate dehydrogenase (GAPDH) (2118S), lactate dehydrogenase-A (LDHA) (2012S), phospho glycogen synthase kinase (GSK) 3 β (Ser9) (9336S), GSK3 β(9315S) and glucose 6-phosphate dehydrogenase (G6PD) (8866S) from Cell Signaling Technology. Mouse monoclonal anti-nitrotyrosine antibodies were obtained from Calbiochem, La Jolla, Calif. (487923). Akt Y350 NO2 antibody obtained as a custom-made antibody against Akt1-nitro (341-353) and the sequence was CGRLPF-nitroY-NQDHEK (SEQ ID NO: 2). Two peptides were developed with and without Y350 nitration. The antibody developed against nitrated peptide cleaned using non-nitrated peptide (Akt1 (341-353): […], SEQ ID NO: 3) to remove nonspecific antibodies. […] Since the quantification of the Akt nitration is not fully established by mass spectrometry, a common method was used by newly developed antibodies for the quantification of specific Y350 nitration of Akt. The reactive bands were visualized by chemiluminescent ChemiDoc™ MP Imaging System (Bio-Rad Laboratories Inc., Hercules, Calif.) and analyzed using Image Lab™ software. […] This normalization is equal to housekeeping genes normalization and rigorously evaluated by Bio-Rad company (http://www.bio-rad.com/en-us/applications-technologies/stain-free-imaging-technology?ID=NZ0G1815) and others in comparison with beta-actin normalization.

Akt [2] = assay: as above; assay type: in vivo, rat; details: SU2 rats, NP 0.1 mg/kg/day i.v. two-weeks
Procedure: as §1

HPASMCs [3] = assay: Seahorse glycostress assay (ECAR); assay type: cell-based, human; details: SIN-1 treatment
Procedure: (§2) For the glycostress Seahorse assay, human pulmonary artery smooth muscle cells (HPASMCs) were seeded in a 24 well Seahorse cell culture microplate at 50000/well and kept overnight to form a monolayer. On the day of experiment, the media was aspirated and cells were incubated at 37° C. in a non-CO2 incubator for 1 hour with 0.5 mL XF base medium (cat #102353-100, Agilent, Santa Clara, Calif.) supplemented with 2 mM glutamine. Glucose (56 μL, 100 mM), Oligomycin (62 μL, 100 μM) and 2-deoxyglucose (69 μL, 500 mM) was added to the flux pack wells (cat #102342-100, Agilent, Santa Clara, Calif.). ECAR (extracellular acidification rate) was then measured using Seahorse Bioscience XFe24 extracellular flux analyzer (Agilent, Santa Clara, Calif.) according to the manufacturer's protocol. For the mitostress assay, cells were prepared like the glycostress assay with the exception that the XF base incubation media was supplemented with pyruvate (1 mM), glutamine (2 mM) and glucose (10 mM). Oligomycin (56 μL, 10 μM), FCCP (62 μL, 10 μM) and Rotenone+Antimycin-A (69 μL, 5 μM) were added to the flux pack wells. OCR (oxygen consumption rate) was then identified according to the manufacturer's protocol. Data was normalized to cell number as determined by flow cytometry. All the chemicals used for these experiments, unless specified, were procured from Sigma-Aldrich.

LDH = details: SU2 rats, NP treatment, lung tissue
Procedure: Female Sprague Dawley rats (200-250 g) obtained from Charles River (Wilmington, Mass., USA) were used in this study. […] Generally, PAH was induced by a single injection of SU5416 (50 mg/kg) subcutaneously, followed by 3 weeks of hypoxia (10% 02) and 2 weeks of normoxia. This study included five animal groups: control group; SU1, rats were analyzed after 1 week of SU5416 and hypoxia treatment; SU2, rats were analyzed after 2 weeks of SU5416 and hypoxia treatment; SUS, rats were analyzed after 5 weeks of SU5416 treatment (3 weeks of hypoxia with a following 2 weeks of normoxia); and SU2+NP peptide treatment 0.1 mg/kg/day intravenous (i.v.) injection started with SU5416 treatment for two-weeks.
LDH activity in lung tissue was assessed by Lactate Dehydrogenase Activity Colorimetric Assay Kit (K726, BioVision Inc. Calif., USA) according to manufacturer's instruction. All values were normalized with respect to protein concentrations as determined by the Pierce™ BCA Protein Assay Kit (Thermo Scientific, Rockford, Ill.).

sugen/hypoxia PAH model [4] = assay: Western blot of metabolic proteins in lung tissue, sugen/hypoxia PAH model; assay type: in vivo, rat; details: SU2 rats
Procedure: For an analysis of the total lung protein, lung tissues were lysed as previously described. Briefly, 20-40 mg of lung tissue (human/rat) was lysed in Permeabilization Buffer mixed with protease and phosphatase inhibitor cocktails using a Fisher Homogenizer 850. The homogenate was centrifuged at 10,000 g for 10 min, and the supernatant was carefully collected. Cell membrane and cytosolic fractions were isolated using FractionPREP™ cell fraction kit (Biovision, Milpitas, Calif.) according to manufacturer's instruction. The protein concentration was measured using the BCA protein assay kit (Thermo Scientific, Rockford, Ill.). Samples were incubated with 6×Laemmli sample buffer (Boston Bioproducts Inc., Ashland, Mass.), for 5 min at 95° C., loaded on the 4-20% SDS-PAGE Mini-PROTEAN TGX Stain-Free™ gels (Bio-Rad Laboratories Inc., Hercules, Calif.) and separated by electrophoresis. Protein bands were transferred using Trans-Blot Turbo transferring system (Bio-Rad Laboratories Inc.) and then blocked with 5% bovine serum albumin in Tris-buffered saline. Membranes were probed using antibodies against Glut 4 (07-1404) from Millipore, pyruvate carboxylase (PC) (Ab229267) & peroxisome proliferator-activated receptor gamma coactivator 1-alpha (PGC-1α) (Ab191838) from Abcam, pyruvate dehydrogenase (PDH) (45-6600) from Invitrogen, phospho Akt (Ser 473) (4060S), Akt (9272S), hexokinase 1 (HK1) (C35C4), glyceraldehyde-3 phosphate dehydrogenase (GAPDH) (2118S), lactate dehydrogenase-A (LDHA) (2012S), phospho glycogen synthase kinase (GSK) 3 β (Ser9) (9336S), GSK3 β(9315S) and glucose 6-phosphate dehydrogenase (G6PD) (8866S) from Cell Signaling Technology. Mouse monoclonal anti-nitrotyrosine antibodies were obtained from Calbiochem, La Jolla, Calif. (487923). Akt Y350 NO2 antibody obtained as a custom-made antibody against Akt1-nitro (341-353) and the sequence was CGRLPF-nitroY-NQDHEK (SEQ ID NO: 2). Two peptides were developed with and without Y350 nitration. The antibody developed against nitrated peptide cleaned using non-nitrated peptide (Akt1 (341-353): […], SEQ ID NO: 3) to remove nonspecific antibodies. Affinity purification was done using large reusable affinity purification columns against the unmodified and nitrated peptides. […] Since the quantification of the Akt nitration is not fully established by mass spectrometry, a common method was used by newly developed antibodies for the quantification of specific Y350 nitration of Akt. The reactive bands were visualized by chemiluminescent ChemiDoc™ MP Imaging System (Bio-Rad Laboratories Inc., Hercules, Calif.) and analyzed using Image Lab™ software. The protein loading was normalized per total sample protein as fold control using stain free gels as previously described. This normalization is equal to housekeeping genes normalization and rigorously evaluated by Bio-Rad company (http://www.bio-rad.com/en-us/applications-technologies/stain-free-imaging-technology?ID=NZ0G1815) and others in comparison with beta-actin normalization.

PDH = assay: Pyruvate dehydrogenase assay in lung tissue; assay type: in vivo, rat; details: SU2 rats, NP treatment
Procedure: Lung tissue was lysed using RIPA buffer and the lysate was used for the PDH activity. PDH activity was measured with PDH Activity Assay Kit (MAK183, Sigma-Aldrich) per the manufacturer protocol.

sugen/hypoxia PAH model [5] = assay: Metabolic intermediates analysis of lung lysate (PCA); assay type: in vivo, rat; details: SU2+NP versus SU2
Procedure: Data were acquired using the West Coast Metabolomics Center at UC Davis. Briefly, Restek corporation Rtx-5Sil MS column was used with helium mobile phase at temperature interval (50-330° C.) and flow-rate: 1 mL min-1. Injection volume was 0.5 μL at 50° C. ramped to 250° C. by 12° C. s-1. Oven temperature started at 50° C. for 1 min, then ramped at 20° C. min-1 to 330° C., and held constant for 5 min. Mass spectrometry analysis was done on a Leco Pegasus IV mass spectrometer with unit mass resolution at 17 spectra s-1 from 80-500 Da at −70 eV ionization energy and 1800 V detector voltage with a 230° C. transfer line and a 250° C. ion source. Raw data files were preprocessed directly after data acquisition and stored as ChromaTOF-specific*.peg files, as generic*.txt result files and additionally as generic ANDI MS*.cdf files. ChromaTOF vs. 2.32 was used for data preprocessing without smoothing, 3s peak width, baseline subtraction just above the noise level, and automatic mass spectral deconvolution and peak detection at signal/noise levels of 5:1 throughout the chromatogram. Apex masses were reported for use in the BinBase algorithm. Result*.txt files were exported to a data server with absolute spectra intensities and further processed by a filtering algorithm implemented in the metabolomics BinBase database.

sugen/hypoxia PAH model [6] = assay: Hemodynamic measurement (RVSP, Fulton index), sugen/hypoxia PAH model; assay type: in vivo, rat; details: SU2 rats, NP 0.1 mg/kg/day i.v. two-weeks
Procedure: Animals were anesthetized with inactin 100 mg/kg intraperitoneally (i.p.) (T133, Sigma-Aldrich). A customized pressure transducer catheter (SPR-513, Millar Instruments, Houston, Tex.) was inserted into RV via the right jugular vein and advanced into the right ventricle to monitor right ventricular systolic pressure (RVSP) as described previously. Briefly, the pressure transducer catheter was connected to a Millar Transducer Control Unit TC-510 and PL3504 PowerLab 4/35 data acquisition system (AD Instruments, Colorado Springs, Colo.) to monitor RV pressure for 30-min. After this a tracheal catheter was connected to a ventilator system (Harvard Rodent Ventilator-683; Harvard Apparatus, South Natick, Mass.), the thorax was opened, and the lungs flushed with 0.9% sodium chloride through the right ventricle (RV). Heart and lungs were collected from animals; the RV free wall was separated from the left ventricle (LV), and the septum (5). Fulton index (RV/LV+S ratio) as a parameter of RV hypertrophy was calculated. The total wet lung weight was measured and normalized by the body weight of the animal. The left lung was fixed in formalin and embedded in paraffin for histological examination. The other portion of the lung was stored at −80° C. for further biochemical studies.

Akt (Y350 nitration) = target: T2, Akt (Y350 nitration) (Homo sapiens, UniProt P31749); assay: Sin-1 induced Akt nitration assay in HPAECs; assay type: cell-based; details: 1 μM NP pretreatment 30 min, washed, then SIN-1 1 mM 1 hour
T2 construct: endogenous in cells; host or cells: HPAEC (human pulmonary artery endothelial cells)
Procedure: Human pulmonary artery endothelial cells (HPAECs) were cultured using an endothelium media specific for HPAEC with 10% FBS. Cells were used from passages 3-6. All experiments were performed on 80-90% confluent cells. Akt nitration was induced by treatment with 3-Morpholinosyndnomine (SIN-1) (1 mM) for 1 hour. NP pretreatment groups were treated with 1 μM NP for 30 min, and then cells were washed in PBS and treated with SIN-1 for 1 hour. All treatments were accompanied by including controls with the corresponding vehicle. After treatment, the cells were washed in PBS and lysed in a RIPA buffer containing protease and phosphatase inhibitor cocktail.
For an analysis of the total lung protein, lung tissues were lysed as previously described. Briefly, 20-40 mg of lung tissue (human/rat) was lysed in Permeabilization Buffer mixed with protease and phosphatase inhibitor cocktails using a Fisher Homogenizer 850. […] The protein concentration was measured using the BCA protein assay kit (Thermo Scientific, Rockford, Ill.). […] Since the quantification of the Akt nitration is not fully established by mass spectrometry, a common method was used by newly developed antibodies for the quantification of specific Y350 nitration of Akt. The reactive bands were visualized by chemiluminescent ChemiDoc™ MP Imaging System (Bio-Rad Laboratories Inc., Hercules, Calif.) and analyzed using Image Lab™ software. […]

HPASMCs [7] = assay: Seahorse mitostress assay (OCR); assay type: cell-based, human; details: SIN-1 treatment
Procedure: as §2

sugen/hypoxia PAH model [8] = assay: Histological analysis of pulmonary arteries (EVG, Ki-67), sugen/hypoxia PAH model; assay type: in vivo, rat; details: SU2 rats, NP 0.1 mg/kg/day i.v. two-weeks
From the text: For the morphometric assessment of pulmonary vessels 5-μm tissue sections were dewaxed and stained with elastic fibers—Verhoeffs van gieson (EVG) by HistoWiz Inc. (Brooklyn, N.Y.) using standard operating procedures and a fully automated workflow system. Ten transversely sectioned pulmonary arteries (diameter<300 μm) within each category per each animal (N=6 per group) were randomly selected from the whole-slide 40X digitized image Aperio AT2 scanner (Leica Biosystems, Ill.). Immunohistochemistry was performed using standard protocols. The sections were deparaffinized and incubated with primary antibodies against Akt Y350 NO2 (1:100), and Ki67 (1:800) (ab15580 Abcam); Dab Rabbit H1 (pH 6) for 20 min. The morphometric analysis was done by an investigator by a blinded grouping fashion. The wall thickness of the pulmonary artery (PA) was measured using the publicly available software Fiji is just ImageJ (http://fiji.sc/Fiji; in the public domain).

T1 sequence (P47196 whole entry): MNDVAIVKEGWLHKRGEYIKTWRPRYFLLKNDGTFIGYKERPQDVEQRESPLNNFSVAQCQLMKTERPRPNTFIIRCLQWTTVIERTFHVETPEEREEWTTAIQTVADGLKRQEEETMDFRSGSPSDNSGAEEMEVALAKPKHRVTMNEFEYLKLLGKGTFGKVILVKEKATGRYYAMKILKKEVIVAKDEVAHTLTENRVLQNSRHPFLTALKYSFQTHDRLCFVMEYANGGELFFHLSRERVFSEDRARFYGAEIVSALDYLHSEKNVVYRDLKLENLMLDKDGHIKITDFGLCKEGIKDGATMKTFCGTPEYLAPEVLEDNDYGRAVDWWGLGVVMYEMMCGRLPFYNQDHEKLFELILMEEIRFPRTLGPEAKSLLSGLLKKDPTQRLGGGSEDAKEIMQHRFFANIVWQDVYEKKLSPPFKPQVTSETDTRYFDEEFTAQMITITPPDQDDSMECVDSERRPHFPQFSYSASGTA
T2 sequence (P31749 whole entry): as the sequence (P47196 whole entry) above, with N2S, E46D, S50A, R112K, T117E, A137S, T389K, N410G, D415H counted along it

CC1(C)CC(O)CC(C)(C)N1[O] [TEMPOL]
preventing pulmonary arterial remodeling (sugen/hypoxic PAH model; recently reported): not effective
right ventricular hypertrophy and pulmonary arterial remodeling (sugen/hypoxic PAH model; sugen/hypoxic PAH model, reported): failed to attenuate

NP: peptide Ser-Arg-IIe-Arg-Ser (SEQ ID NO: 1) with nitroxide (3-Carboxy-2,2,5,5-tetramethyl pyrroline-1-yloxy) covalently attached to the free N-terminal amine
nitroAkt modification in the lung tissue (Akt [1]): significantly reduced; also recorded: remarkable reduction
Phosphorylation of Akt at Ser-473 (Akt [2]; lung lysate): does not affect
total Akt expression (Akt [2]; lung lysate): did not change
total nitration in lungs (Akt [2]; selectivity toward Akt nitration): did not significantly alter
Glycolytic capacity (HPASMCs [3]): attenuated
glycolysis (glycolytic rate, ECAR) (HPASMCs [3]): attenuated this back to control level
LDHA activity (LDH): attenuating
pyruvate carboxylase (PC) expression (sugen/hypoxia PAH model [4]; NP 0.1 mg/kg/day i.v. two-weeks): decreased
G6PD expression (sugen/hypoxia PAH model [4]; NP treatment): upregulated significantly
GSK3β expression (sugen/hypoxia PAH model [4]; NP treatment): reversed
Glut4 translocation to membrane (membrane/cytosol ratio) (sugen/hypoxia PAH model [4]; NP treatment): attenuated
LDHA expression (sugen/hypoxia PAH model [4]; NP treatment): attenuating
PDH expression (sugen/hypoxia PAH model [4]; NP treatment): significantly increased
PGC1α expression (sugen/hypoxia PAH model [4]; NP treatment): significantly reduced
PDH activity (PDH): increased
metabolites significantly restored by treatment (sugen/hypoxia PAH model [5]): 30 metabolites
Fulton index (RV/LV+S), RV hypertrophy (sugen/hypoxia PAH model [6]): markedly decreased; also recorded: reversed
right ventricular systolic pressure (RVSP) (sugen/hypoxia PAH model [6]; SU2 without NP 71.9±3.6, p<0.001): 36.1±2.6
reduction of Akt nitration (Y350) (Akt (Y350 nitration)): 55%
basal respiration rate (HPASMCs [7]): without affecting
mitochondrial oxidative phosphorylation rate (OCR) (HPASMCs [7]): upregulated the oxidative phosphorylation rate to control level
EVG staining: perivascular fibrosis, vasoconstriction and proliferation in pulmonary arteries (sugen/hypoxia PAH model [8]): significantly attenuated
vascular remodeling and cellular proliferation (Ki-67 staining) (sugen/hypoxia PAH model [8]): effectively prevented
